The text below walks through data of patent US20120129809A1, “LUNG CANCER TREATMENT” (priority 2009, published 2012).

For data set [1], the system named is PTEN-deficient tumor cell lines. The following applies: PTEN-deficient lines including glioblastoma, prostate, breast, pancreas, lung and colon; cited from earlier work.
Data set [2] is described as follows: side effects in patients. Format: in vivo. The following applies: onset as early as first week of treatment.
For data set [3], the system named is A549. As to the kind of experiment: KRAS mutant NSCLC xenograft A549. Format: in vivo.
The subject of data set [4] is NSCLC cell lines (KRAS mutant and KRAS wild-type). Description: panel of more than 100 NSCLC cell lines. Format: cell-based.
For data set [5], the system named is several tumor types, such as sarcomas. As to the kind of experiment: clinical development in advanced cancers. The format is in vivo.
Data set [6] relates to human tumor cell line xenografts. Description: murine tumor xenograft models utilizing human tumor cell lines. Format: in vivo. As to conditions: xenografts representing glioblastoma, prostate, breast, lung, colon and pancreatic cancers. A general note: In xenograft studies the graft and the host belong to different species.
The test system of data set [7] is human tumor cell lines. Description: antiproliferative activity in human tumor cell lines. Format: cell-based. As to conditions: broad range of human tumor cell lines, including NSCLC, fibrosarcoma, glioblastoma, erythroleukemia, prostate, colon, ovarian, endometrial and breast cancers.
Data set [8] has as its system CYP3A.
In data set [9] the test system is H2122. As to the kind of experiment: KRAS mutant NSCLC xenograft H2122. Format: in vivo.

`CO[C@H]1C[C@@H]2CC[C@@H](C)[C@@](O)(O2)C(=O)C(=O)N2CCCCC2C(=O)O[C@H]([C@H](C)C[C@@H]2CC[C@H](OP(C)(C)=O)[C@H](OC)C2)CC(=O)[C@H](C)/C=C(\C)[C@@H](O)[C@H](OC)C(=O)[C@H](C)C[C@@H](C)/C=C/C=C/C=C/1C` (stereo in doubt) [Deforolimus]: the antiproliferative activity entry in [1] and in [7] was “demonstrated antiproliferative activity” each time. Also, in [2], the side effect result is recorded as “mouth sores typically reported as mucositis”. The anti-tumor activity entry in data set [3] was “showed anti-tumor activity”; in [5] it was “evidence of anti-tumor activity”; in [9] it was “showed anti-tumor activity”. Besides, the “activity in KRAS mutant versus KRAS wild-type cells” value in [4] was “the same in both KRAS mutant and KRAS wild-type cells”. Besides, the in vivo activity entry in [6] was “demonstrated in vivo activity”. Also, in data set [8], the “metabolism by CYP3A” value is “extensively metabolized by CYP3A”.
